Type in all cases: binding
For one test, the target named is T1, dopamine D1-receptors (Rattus norvegicus, UniProt P18901).
T1 construct: The striata were dissected out, weighed and homogenised in 25 volumes of tris buffer; from tissue; host or cells: rat striatum membranes (Chbb:Thom strain), prepared as for the D2 assay
In words: affinity for dopamine D1-receptors by displacement experiments with [3H]-Sch 23390. On the procedure: (§1) Male rats (of the Chbb:Thom strain weighing about 200 g) were killed by a blow to the back of the neck. The brains were removed and dissected on ice. The striata were dissected out, weighed and homogenised in 25 volumes of tris buffer (50 mM tris-HCl, 1 mM EDTA, 5 mM MgCl2 and 1 mM ascorbic acid) for 30 seconds in an Ultra-Turrax at maximum speed, followed by 10 cycles in a Potter-Elvehjem at 1400 rpm. The pellet obtained after centrifuging at 50,000×g at 4° C. for 15 minutes was again taken up in 25 ml of tris buffer and centrifuged under the above conditions. The supernatant was discarded and the pellet obtained was incubated in 25 ml of tris buffer at 37° C. for 30 minutes and then centrifuged again at 50,000×g at 4° C. for 15 minutes. Finally, the pellet obtained was mixed with tris buffer to obtain a homogenate dilution of 1:500 (based on the weight of the striata).
(§2) Displacement curves were obtained from the data using the TOPFIT programming package (G. Heinzel in "Pharmacokinetics During Drug Development: Data Analysis and Evaluation Techniques", G. Bozler and J. M. van Rossum Eds., G. Fischer Verlag, Stuttgart 1982, 207).
7. Determining the affinity for dopamine D1-receptors by displacement experiments with [^3 H1-Sch 23390
The membrane preparation and data analysis were carried out as described for determining the affinity for dopamine D2 - receptors.
1 ml aliquots of the membrane preparation were incubated for 1 hour at ambient temperature with 1 ml of a solution of 0.25 nM [^3 H]-Sch 23390 (2.44 TBq/mmol, Messrs. DuPont NEN) and with increasing concentrations of the test substance (10^-11 to 10^-4 M). Incubation was ended by the addition of 5 ml of ice cold tris buffer and filtration through Whatman GF/B filters. The filters were washed twice, each time with 5 ml of ice cold buffer. The radioactivity of the filters was determined by liquid scintillation measurement in Instagel(R) (Messrs. Canberra Packard).
The non-specific binding was determined in the presence of 10^-6 M (-)-butaclamol (Research Biochemicals Inc.).

The target in a further test is T2, alpha-2 receptors (Rattus norvegicus, UniProt P22909).
T2 sequence (P22909 1-465): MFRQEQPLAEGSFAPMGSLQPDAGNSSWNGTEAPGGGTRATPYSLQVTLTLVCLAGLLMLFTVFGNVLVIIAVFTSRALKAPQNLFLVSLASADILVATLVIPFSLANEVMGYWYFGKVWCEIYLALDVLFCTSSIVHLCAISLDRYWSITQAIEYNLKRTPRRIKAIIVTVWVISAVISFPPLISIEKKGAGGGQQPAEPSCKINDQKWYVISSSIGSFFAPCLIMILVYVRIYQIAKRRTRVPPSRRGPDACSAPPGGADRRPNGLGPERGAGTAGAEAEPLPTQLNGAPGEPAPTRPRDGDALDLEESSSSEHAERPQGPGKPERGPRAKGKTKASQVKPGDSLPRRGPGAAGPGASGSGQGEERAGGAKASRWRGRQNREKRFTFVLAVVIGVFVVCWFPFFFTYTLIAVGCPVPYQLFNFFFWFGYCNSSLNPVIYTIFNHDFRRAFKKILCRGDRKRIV
The experiment in a line: affinity for alpha-2 receptors by displacement experiments with [3H]-clonidine (rat cortex membranes). As to conditions: read-out: α2-IC50.

The target of a further test is dopamine D2-receptors (Rattus norvegicus, UniProt P61169). The experiment in a line: affinity for dopamine D2-receptors by displacement experiments with [3H]-spiperone (rat striatum membranes). As to conditions: for Ki: [3H]-spiperone, high-affinity form of the dopamine receptor; for α2-IC50 / D2-Ki: relative affinity for dopamine-D2 receptors compared with α2-adrenoceptors, the higher, the higher the D2/α2 selectivity. On the procedure:
1Determining the affinity for dopamine D2-receptors by displacement experiments with [^3 H]-spiperone (Modified Method of W. Billard et al., Life Sci. 35, 1885 (1984) and D. J. de Vries and P. M. Beart, Eur. J. Pharmacol. 109, 417 (1985))
as §1
1 ml aliquots of the membrane preparation were incubated with 1 ml of a solution of 0.25 nM [^3 H]-spiperone ([…], Messrs. DuPont NEN) and at increasing concentrations of the test substance (10^-11 to 10^-4 M) at ambient temperature for one hour. Incubation was ended by the addition of 5 ml of ice cold tris buffer and filtration using Whatman GF/B filters. The filters were washed twice, each time with 5 ml of ice cold buffer. The radioactivity of the filters was determined by liquid scintillation measurement in Instagel^(R) (Messrs. Canberra Packard). Non-specific binding was determined in the presence of 10^-5 M haloperidol (Sigma Chemical Co.).
as §2

The target in test [1] is T3, serotonin-1A(5-HT1A) receptors (Rattus norvegicus, UniProt P19327).
T3 construct: The frontal cortex was dissected out; from tissue; host or cells: rat frontal cortex homogenate (Chbb:Thom strain)
T3 sequence (P19327 1-422): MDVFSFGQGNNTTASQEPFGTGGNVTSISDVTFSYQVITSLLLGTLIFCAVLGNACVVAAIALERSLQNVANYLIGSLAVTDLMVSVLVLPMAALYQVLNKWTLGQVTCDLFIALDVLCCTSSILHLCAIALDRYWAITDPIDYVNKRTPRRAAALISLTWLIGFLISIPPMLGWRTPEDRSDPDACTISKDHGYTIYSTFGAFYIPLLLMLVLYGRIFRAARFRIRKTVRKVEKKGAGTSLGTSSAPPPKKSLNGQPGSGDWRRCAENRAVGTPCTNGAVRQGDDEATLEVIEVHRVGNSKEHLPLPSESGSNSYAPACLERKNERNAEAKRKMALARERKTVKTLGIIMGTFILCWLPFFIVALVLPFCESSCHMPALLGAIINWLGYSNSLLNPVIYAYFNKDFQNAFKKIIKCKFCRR
In words: affinity for serotonin-1A (5-HT1A) receptors by displacement experiments with [3H]-8-OH-DPAT (rat frontal cortex). On the procedure: 3. […] (Method of S. J. Peroutka, J. Neurochem. 47, 529 (1986), modified according to H. Gozlan et al., J. Receptor Research 7. 195 (1987))
A male rat (Chbb:Thom strain weighing about 200 g) was decapitated. The brain was removed and placed in ice-cold buffer (50 mmol/1 tris-HCl plus hydrochloric acid ad pH =7.4 at ambient temperature). The frontal cortex was dissected out; its moist weight was determined. It was homogenised in 40 times its volume of buffer (Polytron, position 6, 10 seconds), then centrifuged for 20 minutes at 45,000×g in the refrigerated centrifuge. The pellet was washed in 100 times its volume of buffer and centrifuged again as described above. The resulting pellet was resuspended in 40 times its volume of buffer and pre-incubated for 10 minutes at 37° C. Sixty times the volume of buffer were added and centrifuging was carried out as above. The resulting pellet was washed with 100 times the volume of buffer and centrifuged as above. The pellet was resuspended in buffer (0.8 ml/10 mg) and briefly homogenised in the Polytron. This homogenised tissue was cooled in ice until ready for incubation.
Incubation was stopped by rapid filtering through Whatman GF/B filters; rinsing was carried out twice, each time with 5 ml of ice cold buffer (Filter Prep, Messrs. Ismatec). The radioactivity of the filters was determined by liquid scintillation measurement.
(§3) Specific binding is obtained from total binding minus non-specific binding.

Test [2] has as its target T4, serotonin-2(5-HT2)-receptors (Rattus norvegicus, UniProt P14842).
T4 construct: The frontal cortex was dissected out and placed in ice cold 0.32 M saccharose solution; from tissue; host or cells: rat frontal cortex homogenate (Chbb:Thom strain)
The experiment in a line: affinity for serotonin-2 (5-HT2) receptors by displacement experiments with [3H]-spiperone (rat frontal cortex). The protocol:
as §3
A male rat (Chbb:Thom strain, about 200 g) was decapitated. The brain was removed. The frontal cortex was dissected out and placed in ice cold 0.32 M saccharose solution; its moist weight was determined. It was homogenised in 10 times the volume (0.32 M) of saccharose solution for 1 minute at 800 rpm in a Potter S (made by Braun of Melsungen). The homogenised material was centrifuged for 10 minutes at 1000×g (=3,000 rpm with a rotor 8×38 ml) in a refrigerated centrifuge. The supernatant was decanted off and homogenised (Polytron, position 5, 1 minute); the sediment was discarded. 5 ml (=0.5 g moist weight) of the tissue suspension thus obtained were made up to 40 ml with buffer (50 mm tris-HCl; pH=7.7 at ambient temperature).
0.8 ml of the buffered homogenised tissue (=10 mg moist weight) were incubated with 0.1 ml of a solution of [^3 H]-spiperone (about 0.2 nmol/1 final concentration) and with 0.1 ml of a solution of the test substance (increasing concentration) for 15 minutes at 37° C. (triple measurement). Incubation was stopped by rapid filtering through a Whatman GF/B filter; rinsing was carried out 3 times, each time with 5 ml of ice cold buffer within a maximum of 10 seconds (Filter Prep Messrs. Ismatec). The radioactivity of the filters was determined by liquid scintillation measurement.
The specific binding is obtained from the total binding minus the non-specific binding. The averages of the triple measurements are entered in a system of coordinates as in 1.3. The IC50 value is the concentration which inhibits the specific binding of [^3 H]-spiperone by 50%.

The mark [3] stands for this setting: [3H]-8-OH-DPAT, rat frontal cortex, read-out: 5-HT1A-Ki.

Molecules are shown by their SMILES. Read-outs that look alike come from different tables or passages of the source.

Chain of dopamine D2-receptors (P61169 whole entry): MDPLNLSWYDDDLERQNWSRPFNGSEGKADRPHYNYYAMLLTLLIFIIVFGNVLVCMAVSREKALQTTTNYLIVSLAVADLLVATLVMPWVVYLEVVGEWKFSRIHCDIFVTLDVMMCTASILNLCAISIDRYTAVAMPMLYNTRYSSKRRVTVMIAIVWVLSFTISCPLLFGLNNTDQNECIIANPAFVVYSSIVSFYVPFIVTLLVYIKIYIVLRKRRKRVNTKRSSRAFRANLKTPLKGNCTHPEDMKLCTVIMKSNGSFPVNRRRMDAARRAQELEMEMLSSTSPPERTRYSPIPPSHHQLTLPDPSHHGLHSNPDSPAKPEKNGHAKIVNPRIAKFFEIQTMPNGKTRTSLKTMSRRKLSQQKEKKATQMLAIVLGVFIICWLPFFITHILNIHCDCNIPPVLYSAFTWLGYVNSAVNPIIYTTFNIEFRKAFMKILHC
T4 sequence (P14842 whole entry): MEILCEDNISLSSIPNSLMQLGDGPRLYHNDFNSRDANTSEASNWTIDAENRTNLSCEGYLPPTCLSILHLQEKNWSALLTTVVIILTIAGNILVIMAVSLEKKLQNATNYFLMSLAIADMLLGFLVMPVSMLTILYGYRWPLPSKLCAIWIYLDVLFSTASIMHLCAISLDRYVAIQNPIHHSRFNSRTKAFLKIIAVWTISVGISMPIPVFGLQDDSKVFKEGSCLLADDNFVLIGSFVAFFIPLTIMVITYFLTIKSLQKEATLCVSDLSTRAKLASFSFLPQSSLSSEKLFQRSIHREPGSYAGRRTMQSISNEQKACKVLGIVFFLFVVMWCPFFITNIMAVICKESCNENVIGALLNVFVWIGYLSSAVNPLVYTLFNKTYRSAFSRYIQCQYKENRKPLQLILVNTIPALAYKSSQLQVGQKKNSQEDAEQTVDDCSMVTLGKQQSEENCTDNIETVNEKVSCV
T1 sequence (P18901 whole entry): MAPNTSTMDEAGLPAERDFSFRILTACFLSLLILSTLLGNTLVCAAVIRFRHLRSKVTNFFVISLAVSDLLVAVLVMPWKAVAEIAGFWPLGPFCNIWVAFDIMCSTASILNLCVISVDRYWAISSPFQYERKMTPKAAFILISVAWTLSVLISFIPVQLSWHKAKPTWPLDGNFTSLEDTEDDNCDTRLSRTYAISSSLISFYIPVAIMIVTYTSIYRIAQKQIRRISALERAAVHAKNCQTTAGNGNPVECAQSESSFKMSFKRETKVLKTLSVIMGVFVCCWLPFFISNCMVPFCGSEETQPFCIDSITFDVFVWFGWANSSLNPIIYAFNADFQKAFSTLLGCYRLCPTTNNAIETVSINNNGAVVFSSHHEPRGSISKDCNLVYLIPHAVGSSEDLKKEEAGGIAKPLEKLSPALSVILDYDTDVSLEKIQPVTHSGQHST
Method for alpha-2 receptors: Determination of the affinity for alpha-2 receptors by displacement experiments with [^3 H] clonidine (Modified Method of B. Jarrott, W. J. Louis and R. J. Summers, Biochem. Pharmacol. 27, 141 (1979))
A male rat (Chbb:Thom strain weighing about 200 g) was killed by a blow to the back of the neck. The brain was removed and the cortex dissected out, weighed and homogenised in 25 volumes of tris buffer (50 mM tris- HCl, pH 7.50) for 30 seconds in an Ultra-Turrax at maximum speed, followed by 10° Cycles in a Potter- Elvehjem at 1400 rpm. The homogenised material was combined with tris buffer to obtain a homogenate dilution of 1:50 (based on the weight of the cortex).
1 ml aliquots of the membrane preparation were incubated for three hours at ambient temperature with 1 ml of a solution of 1 nM of [^3 H]-clonidine (2.2 TBq/mmol, Messrs. DuPont NEN) and with increasing concentrations of the test substance (10^-11 to 10^-4 M). Incubation was ended by the addition of 5 ml of ice-cold tris buffer and filtration through Whatman GF/B filters. The filters were washed twice, each time with 5 ml of ice cold buffer. The radioactivity of the filters was determined by liquid scintillation measurement in Instagel(R) (Messrs. Canberra Packard). The non-specific binding was determined in the presence of 10^-5 M of oxymetazoline (Sigma Chemical Co.).

`Nc1nc2c(s1)CCN(CCc1ccccc1)CC2` [Compound C, 2amino-6-(2phenylethyl)-4,5,7,8-tetrahydro-6H-thiazolo[5,4d]azepine, reference compound]: the inhibition constant Ki at dopamine D1-receptors was 11000 nM; on dopamine D2-receptors, 410 nM. The IC50 on alpha-2 receptors is 5100 nM. In addition, the “α2-IC50 / D2-Ki” value on dopamine D2-receptors was determined as 12.4.

`Nc1nc2c(s1)CCN(CCC=Cc1ccccc1)CC2` [Example 8k, 2-Amino-6-(4-phenyl-3-buten-1-yl)-4,5,7,8-tetrahydro-6H-thiazolo[5,4-d]azepine] registered a Ki at dopamine D1-receptors of 510 nM.

In turn, `O=C(c1ccc(F)cc1)C1CCN(CCn2c(=O)[nH]c3ccccc3c2=O)CC1` [Ketanserine, reference compound] displayed a Ki in test [1] of 2830 nM.

For the molecule `Nc1nc2c(s1)CCN(CC=Cc1ccccc1OCc1ccccc1)CC2` [Example 4x, 2-Amino-6-(3-(2-benzyloxy-phenyl)allyl)-4,5,7,8-tetrahydro-6H-thiazolo[5,4-d]azepine], the affinity on dopamine D1-receptors corresponds to a Ki of 400 nM.

Turning to `Nc1nc2c(s1)CCN(CC#Cc1ccccc1)CC2` [Example 4d, 2-Amino-6-(3-phenyl-2-propyn-1-yl)-4,5,7,8-tetrahydro-6H-thiazolo[5,4-d]azepine], the values for the Ki (in test [2]; in test [1] (setting [3]); on dopamine D2-receptors) were 1800 nM, 14200 nM and 10 nM, respectively. On alpha-2 receptors, the IC50 was 890 nM. Moreover, the “α2-IC50 / D2-Ki” value on dopamine D2-receptors came out at 89.

In the case of `Nc1nc2c(s1)CCN(CC=Cc1ccc(-c3ccccc3)cc1)CC2` [Example 4w, 2-Amino-6-(3-(4-biphenyl)allyl)-4,5,7,8-tetrahydro-6H-thiazolo[5,4-d]azepine], the inhibitory constant (Ki) in test [2] amounted to 1030 nM; in test [1] (setting [3]) it was 36300 nM; on dopamine D2-receptors it was 3 nM. Besides, at alpha-2 receptors, the IC50 turned out to be 2200 nM. Also, the “α2-IC50 / D2-Ki” value at dopamine D2-receptors was 733.

Consider `Nc1nc2c(s1)CCN(CC=Cc1ccccc1)CC2` [Example 1, 2-Amino-6-cinnamyl-4,5,7,8-tetrahydro-6H-thiazolo-[5,4-d]azepine], for which the Ki worked out at 356 nM in test [2] and 4340 nM in test [1] (setting [3]).

In turn, `Nc1nc2c(s1)CCN(CC1=Cc3ccccc3CC1)CC2` [Example 1b, 2-Amino-6-(1,2-dihydronaphthalen-3-yl-methyl)-4,5,7,8-tetrahydro-6H-thiazolo[5,4-d]azepine] gave an inhibition constant Ki on dopamine D1-receptors of 800 nM.

With `Nc1nc2c(s1)CCN(CC=Cc1ccc3ccccc3c1)CC2` [Example 4u, 2-Amino-6-(3-(2-naphthyl)allyl)-4,5,7,8-tetrahydro-6H-thiazolo[5,4-d]azepine], the Ki in test [2] was found to be 350 nM; in test [1] (setting [3]), 14000 nM; on dopamine D2-receptors it was 6.9 nM. Further, the IC50 at alpha-2 receptors amounted to 2200 nM. In addition, the “α2-IC50 / D2-Ki” value at dopamine D2-receptors amounted to 318.

As for `Nc1nc2c(s1)CCN(C/C=C\c1ccccc1)CC2` [Example 12b, (Z)-2-Amino-6-(3-phenyl™2-propen-I-yl)-4,5,7,8-tetrahydro-6H-thiazolo[5,4-d]azepine], the values for the inhibition constant Ki (in test [2]; in test [1] (setting [3]); on dopamine D2-receptors) were 860 nM, 53000 nM and 4.4 nM, respectively. Besides, the 50% inhibitory concentration (IC50) at alpha-2 receptors came out at 2000 nM. The “α2-IC50 / D2-Ki” value on dopamine D2-receptors was 450.

In the case of `Nc1nc2c(s1)CCN(CC1CC1c1ccccc1)CC2` (stereo not drawn) [Example 17, 2-Amino-6-(2-phenyl-1-cyclopropyl-methyl)-4,5,7,8-tetrahydro-6H-thiazolo[5,4-d]azepine], the figures for the inhibitory constant (Ki) in test [2] and in test [1] (setting [3]) were 339 nM and 1060 nM, respectively.

`CCCN(CCC)C1CCc2cccc(O)c2C1` (stereo not drawn) [Example 8-OH-DPAT, 8-OH-DPAT, reference compound]: the inhibitory constant (Ki) in test [2] was 2880 nM.

By Ki is commonly meant the equilibrium dissociation constant of an inhibitor or competing ligand from its target. In general, IC50 refers to the concentration needed to halve the response being measured.
